Assay results from article PMC8175350, “Drug repurposing screens identify chemical entities for the development of COVID-19 interventions” (Nature Communications, 2021).
Several values for one entry are separate records, joined by “and”; a condition that tells them apart may be missing. Identical values can stand only once. Counter-ions that a name gives are not always drawn. Like-named read-outs stand apart in the source and are kept apart here. Residues, ends and D or L forms follow the SMILES beside them. *: point of attachment. Cbz = O=C(OCc1ccccc1)*; CHN2 = [N-]=[N+]=C*

How the values were obtained:
[1] = tested on: SARS-CoV-2; test: microbe, parasite or virus in culture; assay type: cell-based; conditions: for Emax: Severe acute respiratory syndrome coronavirus 2, HeLa-ACE2, 24 h, read-out: HeLa-ACE2 CoV-2 Sinf Average; for HeLa-ACE2 SI: selectivity index, uninfected HeLa-ACE2 CC50 / SARS-CoV-2 EC50
[2] = tested on: Calu-3 cells; test: cells; conditions: Homo sapiens; for EC50: Calu-3, read-out: Calu-3 cell count EC50 GeoMean
[3] = in vitro; conditions: human
[4] = tested on: HeLa-ACE2 cells; test: Total cell count in the HeLa-ACE2 TOA (time of addition) assay; assay type: cell-based, human; conditions: Homo sapiens, HeLa-ACE2; read-out: HeLa-ACE2 TOA cell count EC50 GeoMean
[5] = tested on: SARS-CoV-2; test: microbe, parasite or virus in culture; assay type: cell-based; conditions: for EC50: read-out: HeLa-ACE2 TOA CoV-2 EC50 GeoMean
[6] = tested on: SARS-CoV-2; assay type: cell-based
[7] = tested on: SARS-CoV-2; test: microbe, parasite or virus in culture; assay type: cell-based
[8] = in vitro; conditions: human; remark: listed apart in the source
[9] = tested on: Calu-3 cells
[10] = tested on: HeLa-ACE2 cells; test: cells; conditions: Homo sapiens; for EC50: HeLa-ACE2, read-out: HeLa-ACE2 cell count EC50 GeoMean
[11] = in vitro; conditions: human, Calu-3 uninfected cytotoxicity CC50 GeoMean
[12] = Uninfected HeLa-ACE2 24 h live/dead cytotoxicity counter screen; assay type: cell-based, human; conditions: human, uninfected HeLa-ACE2 cells
[13] = HepG2 72 h CellTiter-Glo cytotoxicity; conditions: human, HepG2 cells
[14] = tested on: HepG2; test: HepG2 72 h CellTiter-Glo cytotoxicity; conditions: 72 h
[15] = HEK293T 72 h CellTiter-Glo cytotoxicity; conditions: human, HEK293T cells
[16] = tested on: HEK293T; test: HEK293T 72 h CellTiter-Glo cytotoxicity; conditions: 72 h
[17] = tested on: SARS-CoV-2; test: Hamster lung viral titer by plaque assay, day 5; assay type: in vivo, Golden Syrian hamster; conditions: 500 mg/kg PO; values look like log10
[18] = Pharmacokinetic studies in Syrian hamsters, PO; assay type: in vivo; conditions: 500 mg/kg PO; for AUC(0-t): po, 500 mg/kg
Protocol: Pharmacokinetic studies were conducted at Scripps Research Institute’s Animal Models Core in accordance with IACUC guidelines (IACUC Protocol #09-0004-5). Eight-week-old male Syrian Hamsters (Charles River; three per group) were dosed PO as indicated for each compound and formulation. Plasma concentration of each test article was monitored up to 48 h. Nelfinavir was formulated in 10% DMSO/90% corn oil and MK-4482 was formulated in 10% PEG400/2.5% Cremaphor RH40 for both pharmacokinetic and efficacy studies.

[19] = tested on: SARS-CoV-2; test: Golden Syrian hamster SARS-CoV-2 efficacy model, body weight; assay type: in vivo; conditions: for hamster weight relative to day 0, individual animals: 500 mg/kg PO
[20] = tested on: HeLa-ACE2 cells; test: Total cell count in the HeLa-ACE2 TOA assay; assay type: cell-based; conditions: Homo sapiens
Description: Supplement 41467_2021_23328_MOESM3_ESM.xlsx, sheet "Table S1" | column: HeLa-ACE2 TOA cell count

[21] = tested on: Calu-3 cells; test: Uninfected Calu-3 48 h Cell-Titer Glo cytotoxicity counter screen; conditions: curve plateau at infinite concentration
[22] = as above; conditions: human, uninfected Calu-3 cells, Calu-3 Uninf. cells CC50 (µM), reconfirmed hits
[23] = tested on: SARS-CoV-2; assay type: cell-based; conditions: 72 hpi
[24] = ref [33]-[49], cited from earlier work
[25] = tested on: HeLa-ACE2 cells; test: Uninfected HeLa-ACE2 24 h live/dead cytotoxicity counter screen; assay type: cell-based, human
[26] = Severe acute respiratory syndrome coronavirus 2, HeLa-ACE2, detail column, read-out: HeLa-ACE2 CoV-2 EC50 GeoMean
[27] = Severe acute respiratory syndrome coronavirus 2, HeLa-ACE2, detail column
[28] = Severe acute respiratory syndrome coronavirus 2, Calu-3, read-out: Calu-3 CoV-2 EC50 GeoMean
[29] = read-out: HeLa-ACE2 uninfected cytotoxicity CC50 GeoMean
[30] = curve plateau at infinite concentration
[31] = male, Syrian, hamster, plasma, 10%DMSO/90% Corn Oil

## CCOC(=O)[C@@H]1O[C@H]1C(=O)N[C@@H](CC(C)C)C(=O)N1CCN(Cc2ccc(OC)c(OC)c2OC)CC1 [NCO 700]
[1]
  Emax: 90%
  HeLa-ACE2 SI: > 50.44
[1]; [26]
  EC50: 0.79 µM
[2]
  EC50: > 9.98 µM
[3]
  CC50 at 72 h: > 39.8 µM
[4]
  EC50: > 9.59 µM
[5]
  TOA:HeLa-ACE2 EC50 Ratio: 12.146
[5]; [27]
  EC50: > 9.59 µM
[6]; combination with remdesivir
  HeLa-ACE2 synergy score with remdesivi: 0.209 δ
[7]; [28]
  EC50: > 9.98 µM
[8]
  CC50 at 72 h: > 39.8 µM
[9]
  uninfected Calu-3 CC50: > 29.867 ×÷ 1.001 (n=3) μM
[10]; HeLa-ACE2, 24 h, read-out: HeLa-ACE2 cell count Sinf Average
  Emax: -26%
[10]
  EC50: > 5.08 µM
[11]
  CC50 at 48 h: > 29.9 µM
[12]; [29]
  CC50 at 24 h: > 39.8 µM

## Cc1c(O)cccc1C(=O)N[C@@H](CSc1ccccc1)[C@H](O)CN1C[C@H]2CCCC[C@H]2C[C@H]1C(=O)NC(C)(C)C [Nelfinavir mesylate]
[1]; [30]
  Emax: 100%
[1]; Severe acute respiratory syndrome coronavirus 2, HeLa-ACE2, reconfirmed hits, read-out: HeLa-ACE2 SARS-CoV-2 EC50
  EC50: > 8.64 µM
[2]; Calu-3, 48 h, read-out: Calu-3 cell count Sinf Average
  Emax: 79%
[2]
  EC50: 0.875 µM
[13]
  CC50 at 72 h: > 39.8 µM
[14]
  HepG2 72-hour cytotoxicity Sinf Average: -100%
[15]
  CC50 at 72 h: 15.7 µM
[16]
  HEK293T 72-hour cytotoxicty Sinf Average: -100%
[17]
  viral titers in lungs, individual animals: 9.667 and 7.176 and 8.778 and 9.217
[18]; 0:30:00
  plasma level of nelfinavir, individual animals: 40.7 and 326 and 282
[18]; 1:00:00
  plasma level of nelfinavir, individual animals: 20.2 and 6320 and 206
[18]; 3:00:00
  plasma level of nelfinavir, individual animals: 108 and 244 and 71.4
[18]; 7:00:00
  plasma level of nelfinavir, individual animals: 156 and 276 and 245
[18]; 10%DMSO/90% Corn Oil
  Cl (mL/min/kg): 2,542.16 mL/min/kg
  Vd: 706.35 L/kg
[18]; 24:00:00
  plasma level of nelfinavir, individual animals: BQL and 41 and 2.73
[18]; 32:00:00
  plasma level of nelfinavir, individual animals: BQL and 16.9 and 0.47
[18]; 48:00:00
  plasma level of nelfinavir, individual animals: BQL (2×) and 1.81
[18]; hamster
  plasma exposure versus HeLa-ACE2 SARS-CoV-2 EC50: failed to reach exposures above HeLa-ACE2 SARS-CoV-2 EC50
[18]; male, Syrian, hamster, plasma, 10%DMSO/90% Corn Oil, read-out: AUC0-24
  AUC(0-t): 3760 ng·h/mL
[18]; male, Syrian, hamster, plasma, 10%DMSO/90% Corn Oil, read-out: AUCLAST
  AUC(0-t): 3870 ng·h/mL
[18]; [31]
  AUC(0-inf): 5480 ng·h/mL
  Cmax: 2250 ng/mL
  MRT: 5.82 h
  Tmax: 2.83 h
  half-life: 4.02 h
[5]; Severe acute respiratory syndrome coronavirus 2, HeLa-ACE2, 10 h, curve plateau at infinite concentration, read-out: HeLa-ACE2 TOA CoV-2 Sinf Average
  Emax: 100%
[5]; Severe acute respiratory syndrome coronavirus 2, HeLa-ACE2
  EC50: > 8.35 µM
[6]
  Synergy score with remdesivir (δ): −1.23
[6]; ZIP model
  interaction with remdesivir: additive (Additive effect: -10< δ <10)
[6]; alone, Concentration [uM] -7.08145
  dose-response point, normalized infected cells: 8.854 and 6.527 and 6.904
[6]; combination with remdesivir, synergy score δ
  HeLa-ACE2 synergy score with remdesivi [δ]: -1.233
[19]; 500 mg/kg PO BID
  protection from weight loss and viral replication: failed to protect animals from weight loss and viral replication
[19]; Day 1
  hamster weight relative to day 0, individual animals: 99.1786 and 96.9182 and 97.0207 and 99.8527
[19]; Day 2
  hamster weight relative to day 0, individual animals: 97.2793 and 94.4654 and 95.1466 and 96.8581
[19]; Day 3
  hamster weight relative to day 0, individual animals: 95.4312 and 90.7547 and 93.8011 and 92.8326
[19]; Day 4
  hamster weight relative to day 0, individual animals: 92.4025 and 86.7925 and 92.1672 and 89.1998
[19]; Day 5
  hamster weight relative to day 0, individual animals: 90.1951 and 82.0755 and 91.0139 and 86.6961
[7]; Severe acute respiratory syndrome coronavirus 2, Calu-3, 48 h, curve plateau at infinite concentration, read-out: Calu-3 CoV-2 Sinf Average
  Emax: 90%
[7]; Severe acute respiratory syndrome coronavirus 2, Calu-3, reconfirmed hits, read-out: Calu-3 SARS-CoV-2 EC50
  EC50: 0.361 µM
[20]; HeLa-ACE2, 10 h, read-out: HeLa-ACE2 TOA cell count Sinf Average
  Emax: 100%
[20]; HeLa-ACE2, read-out: HeLa-ACE2 TOA cell count EC50 GeoMean
  EC50: > 9.6 µM
[21]
  Calu-3 uninfected cytotoxicity Sinf Average: -93%
[22]
  CC50 at 48 h: > 9.4 µM
[23]
  reduction in apical viral loads: > 1 log
[24]; human
  Approx. t1/2: 7 h
[24]; read-out: Approx. Cmax, human oral
  Cmax: 17 µM
[10]
  EC50: > 9.6 µM
[12]; reconfirmed hits, read-out: HeLa-ACE2 Uninf. cells CC50
  CC50 at 24 h: > 18 µM
[12]; [29]
  CC50 at 24 h: > 18 µM
[25]; [30]
  HeLa-ACE2 uninfected cytotoxicity Sinf Average: -100%

## CC(C)CC(NC(=O)OCc1ccccc1)C(=O)NC(C(=O)NCC(=O)C=[N+]=[N-])C(C)C (stereo not drawn) [Z LVG CHN2] (Cbz-Leu-Val-Gly-CHN2; configuration not given here)
[1]
  Emax: 87%
  HeLa-ACE2 SI: > 554.29
[1]; [26]
  EC50: 0.072 µM
[2]
  EC50: > 9.98 µM
[3]
  CC50 at 72 h: > 39.8 µM
[4]
  EC50: > 9.59 µM
[5]
  TOA:HeLa-ACE2 EC50 Ratio: 133.491
[5]; [27]
  EC50: > 9.59 µM
[7]; [28]
  EC50: > 9.98 µM
[8]
  CC50 at 72 h: > 39.8 µM
[9]
  uninfected Calu-3 CC50: > 29.867 ×÷ 1.001 (n=3) μM
[10]
  EC50: > 9.59 µM
[11]
  CC50 at 48 h: > 29.9 µM
[12]; [29]
  CC50 at 24 h: > 39.8 µM
[25]; human, uninfected HeLa-ACE2 cells, 24 h
  HeLa-ACE2 uninfected cytotoxicity Sinf Average: -100%
